# Source: PMC7898822, “RNA‐PROTACs: Degraders of RNA‐Binding Proteins” (Angewandte Chemie (International Ed. in English), 2020)
# Tests used:
# Lin28A [1] = assay: Confocal microscopy, LIN28A level in K562 cells; format: cell-based, human; details: FAM labelled ORN3P1, 1 µM, 24 h
# Lin28A [2] = assay: Pull-down RNA ELISA, gymnosis, anti-Lin28A; format: cell-based, human; details: 3'-biotin conjugates, K562 cells, 2 µM, 24 h; streptavidin plate; vs mock or FUS antibody
# From the text: Humans express two paralogs of the protein, LIN28 (Lin28A) and LIN28B (Lin28B), that play key roles in development, metabolism, and pluripotency. ^[34] Lin28 proteins are abundantly expressed during embryonic development, as well as in several tumors and tumor‐derived cell lines. ^[35] […] In order to confirm that RNA‐PROTACs bind to endogenous Lin28 in cells, we performed a pull‐down RNA ELISA assay that we have previously described. ^[36] Thus, we conjugated a biotin group to the 3′ ends of ORN3P1 and ORN7P1 and added these reagents separately on to myelogenous leukemia K562 cells. We incubated lysates from treated cells on streptavidin‐coated plates so as to capture the RNA‐PROTACs present in the cell lysates. We then assayed for the presence of Lin28A in the plates using an anti‐Lin28A antibody and a negative control anti‐FUS antibody. […]
# The protein extracts (12-17 µg) were run on a 4-20% SDS-PAGE and transferred on a nitrocellulose blotting membrane 0.22 µm (GE Healthcare) using the Trans-Blot transfer device (Biorad). […] The proteins were detected using the anti-lin28a antibody (Cell Signaling technology, D9F5), anti-lin28b antibody (Cell Signaling technology, 4196S), anti-rbfox1 (NovusBio, NBP2-13169SS), at 1:1000 and anti-hrnp c antibody […]
# (§1) on a ChemiDoc MP imager (Biorad). The intensity of the signal was quantified using the ImageJ-Fiji software. […]
# QKI (pDEST-Myc-QKI) = assay: Ubiquitination assay of Myc-QKI (negative control RBP) in 22Rv1 cells; format: cell-based; details: pDEST-Myc-QKI and HA-Ub, 500 nM, 48 h
# Procedure: Next, we investigated the ability of ORN3P1 and ORN7P1 to mediate ubiquitination of Lin28 in cells, using a previously described protocol. ^[32] Cells from the prostate cancer cell line 22RV1, which express very low levels of Lin28, were co‐transfected with two plasmids expressing pCMV‐myc‐Lin28A and HA‐tagged polyubiquitin (HA‐Ub).
# After 48 h of incubation with ORN3P1 and ORN7P1, the tagged Lin28 (and the control QKI) was immunoprecipitated using an anti‐Myc antibody. The isolated protein was then analyzed by western blotting using the anti‐HA and anti‐c‐Myc antibodies. Consistent with other previously described PROTAC reagents,[ ^32 , ^33 ]
# The protein extracts (12-17 µg) were run on a 4-20% SDS-PAGE and transferred on a nitrocellulose blotting membrane 0.22 µm (GE Healthcare) using the Trans-Blot transfer device (Biorad). Membranes were blocked with 5% milk and incubated with the primary antibody overnight at 4 °C. Membranes were washed with 0.05% PBS-T and reacted with the secondary antibody for 1 h in 5% milk. The proteins were detected using the anti-lin28a antibody (Cell Signaling technology, D9F5), anti-lin28b antibody (Cell Signaling technology, 4196S), anti-rbfox1 (NovusBio, NBP2-13169SS), at 1:1000 and anti-hrnp c antibody […]
# (Abcam, AB133607) at 1:10000 dilutions. […]
# as §1
smiles,measurement,setting,value
CC[C@H](C)[C@H](NC(=O)[C@H](Cc1ccc(O)cc1)NC(=O)[C@@H]1C[C@@H](O)CN1C(=O)[C@H](C)NC(=O)[C@H](CC(C)C)NC(=O)CCCCCNC(=O)[C@@H](N)CSC1CC(=O)N(CCOP(=O)(S)OC[C@H]2O[C@@H](n3cnc4c(N)ncnc43)[C@H](OCCOC)[C@@H]2OP(=O)(S)OC[C@H]2O[C@@H](n3cnc4c(=O)[nH]c(N)nc43)[C@H](OCCOC)[C@@H]2OP(=O)(S)OC[C@H]2O[C@@H](n3cnc4c(=O)[nH]c(N)nc43)[C@H](OCCOC)[C@@H]2OP(=O)(S)OC[C@H]2O[C@@H](n3cnc4c(N)ncnc43)[C@H](OCCOC)[C@@H]2OP(=O)(S)OC[C@H]2O[C@@H](n3cnc4c(=O)[nH]c(N)nc43)[C@H](OCCOC)[C@@H]2OP(=O)(S)OC[C@H]2O[C@@H](n3cnc4c(N)ncnc43)[C@H](OCCOC)[C@@H]2OP(=O)(S)OC[C@H]2O[C@@H](n3cc(C)c(=O)[nH]c3=O)[C@H](OCCOC)[C@@H]2O)C1=O)C(=O)O (stereo partly drawn) [ORN3P1],LIN28A degradation by confocal microscopy,Lin28A [1],LIN28A is degraded
same,Lin28A pull-down signal,Lin28A [2],strong signal for Lin28A protein
same,ubiquitination of QKI,QKI (pDEST-Myc-QKI),showed no such effects
